Assay results published in PubChem BioAssay AID248 (DTP/NCI, 2004).
Several values for one entry are separate records, joined by “and”; a condition that tells them apart may be missing. Equal values may be shown once. Inconclusive results and toxic doses are left out. No stated cut-off is given here; in the data, active means T/C of 150% or more; inactive means T/C below 125%.

Tested on: L1210 leukemia ip in BDF1 mice, survival T/C
Assay: NCI In Vivo Anticancer Drug Screen. Data for tumor model L1210 Leukemia (intraperitoneal) in B6D2F1 (BDF1) mice
Conditions: endpoint: mean survival time, higher = longer survival
Summary of the method: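 Ratio derived from survival: compound-dosed mice over vehicle-dosed mice, all bearing a transplantable tumor.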

[1] = dose: 100.0 mg/kg/injection, schedule: Q04DX003 (ip), vehicle: saline
[2] = dose: 200.0 mg/kg/injection, schedule: Q04DX003 (ip), vehicle: saline
[3] = dose: 400.0 mg/kg/injection, schedule: Q04DX003 (ip), vehicle: saline
[4] = dose: 100.0 mg/kg/injection, schedule: Q01DX001 (ip), vehicle: saline
[5] = dose: 200.0 mg/kg/injection, schedule: Q01DX001 (ip), vehicle: saline
[6] = dose: 100.0 mg/kg/injection, schedule: Q01DX009 (ip), vehicle: Klucel (hydroxypropylcellulose) (HPC)
[7] = dose: 100.0 mg/kg/injection, schedule: Q04DX003 (ip), vehicle: Klucel (hydroxypropylcellulose) (HPC)
[8] = dose: 200.0 mg/kg/injection, schedule: Q01DX009 (ip), vehicle: Klucel (hydroxypropylcellulose) (HPC)
[9] = dose: 200.0 mg/kg/injection, schedule: Q04DX003 (ip), vehicle: Klucel (hydroxypropylcellulose) (HPC)
[10] = dose: 400.0 mg/kg/injection, schedule: Q01DX009 (ip), vehicle: Klucel (hydroxypropylcellulose) (HPC)
[11] = dose: 400.0 mg/kg/injection, schedule: Q04DX003 (ip), vehicle: Klucel (hydroxypropylcellulose) (HPC)
[12] = dose: 50.0 mg/kg/injection, schedule: Q01DX001 (ip), vehicle: carboxymethylcellulose (CMC)
[13] = dose: 100.0 mg/kg/injection, schedule: Q01DX001 (ip), vehicle: carboxymethylcellulose (CMC)
[14] = dose: 200.0 mg/kg/injection, schedule: Q01DX001 (ip), vehicle: carboxymethylcellulose (CMC)
[15] = dose: 400.0 mg/kg/injection, schedule: Q01DX001 (ip), vehicle: carboxymethylcellulose (CMC)
[16] = dose: 100.0 mg/kg/injection, schedule: Q04DX002 (ip), vehicle: saline with Tween-80
[17] = dose: 200.0 mg/kg/injection, schedule: Q04DX002 (ip), vehicle: saline with Tween-80
[18] = dose: 400.0 mg/kg/injection, schedule: Q04DX002 (ip), vehicle: saline with Tween-80

Measured: T/C

CCCCCC(=C/c1ccccc1)/C=N/N=C(N)N
inactive: dose: 15.0 mg/kg/injection, schedule: Q01DX Z (ip), vehicle: saline 93 % of control | dose: 30.0 mg/kg/injection, schedule: Q01DX Z (ip), vehicle: saline 104 % of control | dose: 30.0 mg/kg/injection, schedule: Q01DX Z (oral), vehicle: saline 94 % of control | dose: 60.0 mg/kg/injection, schedule: Q01DX Z (ip), vehicle: saline 98 % of control | dose: 60.0 mg/kg/injection, schedule: Q01DX Z (oral), vehicle: saline 90 % of control | dose: 120.0 mg/kg/injection, schedule: Q01DX Z (oral), vehicle: saline 94 % of control

COc1c(N(C)C)cc2c(c1C)OC(C)(C)C=C2
inactive: dose: 100.0 mg/kg/injection, schedule: Q04DX003 (ip), vehicle: saline with Tween-80 96 % of control | dose: 200.0 mg/kg/injection, schedule: Q04DX003 (ip), vehicle: saline with Tween-80 94 % of control | dose: 400.0 mg/kg/injection, schedule: Q04DX003 (ip), vehicle: saline with Tween-80 96 % of control

O=C(COCc1ccccc1)OCc1ccccc1
inactive: dose: 100.0 mg/kg/injection, schedule: Q01DX009 (ip), vehicle: saline sonified 100 % of control | dose: 100.0 mg/kg/injection, schedule: Q04DX003 (ip), vehicle: saline sonified 90 % of control | [1] 98 % of control | dose: 200.0 mg/kg/injection, schedule: Q01DX009 (ip), vehicle: saline sonified 102 % of control | dose: 200.0 mg/kg/injection, schedule: Q04DX003 (ip), vehicle: saline sonified 114 % of control | [2] 94 % of control | dose: 400.0 mg/kg/injection, schedule: Q01DX009 (ip), vehicle: saline sonified 98 % of control | dose: 400.0 mg/kg/injection, schedule: Q04DX003 (ip), vehicle: saline sonified 106 % of control | [3] 94 % of control

O=S(=O)(CCCCl)N1CCOCC1
inactive: [4] 102 % of control | [1] 97 % of control | [5] 106 % of control | [2] 106 % of control | dose: 400.0 mg/kg/injection, schedule: Q01DX001 (ip), vehicle: saline 100 % of control | [3] 95 % of control

CC(C)CCCC(C)CC1CC(C)CCC1O (centres undefined)
inactive: [6] 93 % of control | [7] 98 % of control | [8] 92 % of control | [9] 94 % of control | [10] 101 % of control | [11] 96 % of control

COC(=O)C1=CC=CC1
inactive: dose: 100.0 mg/kg/injection, schedule: Q01DX005 (ip), vehicle: Klucel (hydroxypropylcellulose) (HPC) 103 % of control | [6] 104 % of control | dose: 200.0 mg/kg/injection, schedule: Q01DX005 (ip), vehicle: Klucel (hydroxypropylcellulose) (HPC) 98 % of control | [8] 104 % of control | dose: 400.0 mg/kg/injection, schedule: Q01DX005 (ip), vehicle: Klucel (hydroxypropylcellulose) (HPC) 95 % of control | [10] 93 % of control

CN(C)c1ccc(-c2ccc(N(C)C)cc2)cc1
inactive: [12] 100 % of control | [13] 100 % of control | [14] 96 % of control | [15] 106 % of control

CC1([N+](=O)[O-])COCOC1
inactive: [1] 103 % of control | [2] 95 % of control | [3] 94 % of control

CCN(CC)C(=O)Nc1cc2c3c(c1)CCCN3CCC2
inactive: dose: 50.0 mg/kg/injection, schedule: Q04DX002 (ip), vehicle: saline with Tween-80 96 % of control | [16] 93 % of control | [17] 90 % of control | [18] 114 % of control

Cc1cc(Cl)cc(CN(C)Cc2c(C)[nH]c(=O)[nH]c2=O)c1O
inactive: [13] 97 % of control | [14] 94 % of control | [15] 97 % of control

O=C(CC1OCCO1)c1ccccc1
inactive: dose: 50.0 mg/kg/injection, schedule: Q04DX002 (ip), vehicle: saline 95 % of control | dose: 100.0 mg/kg/injection, schedule: Q04DX002 (ip), vehicle: saline 89 % of control | dose: 200.0 mg/kg/injection, schedule: Q04DX002 (ip), vehicle: saline 95 % of control | dose: 400.0 mg/kg/injection, schedule: Q04DX002 (ip), vehicle: saline 95 % of control

CCOC(=O)C(C)(NC(C)=O)C(C)=O (centres undefined)
inactive: [12] 106 % of control | [13] 114 % of control | [14] 101 % of control | [15] 92 % of control

COc1ccc(Cl)cc1NC(=O)Oc1c(C)cccc1C
inactive: dose: 100.0 mg/kg/injection, schedule: Q01DX001 (ip), vehicle: saline with Tween-80 106 % of control | dose: 100.0 mg/kg/injection, schedule: Q01DX009 (ip), vehicle: saline with Tween-80 96 % of control | [16] 95 % of control and 89 % of control | dose: 200.0 mg/kg/injection, schedule: Q01DX001 (ip), vehicle: saline with Tween-80 90 % of control | dose: 200.0 mg/kg/injection, schedule: Q01DX009 (ip), vehicle: saline with Tween-80 98 % of control | [17] 95 % of control and 97 % of control | dose: 400.0 mg/kg/injection, schedule: Q01DX001 (ip), vehicle: saline with Tween-80 96 % of control | dose: 400.0 mg/kg/injection, schedule: Q01DX009 (ip), vehicle: saline with Tween-80 102 % of control | [18] 95 % of control and 98 % of control

CO/[N+]([O-])=C\C(=O)N/C=C/C(=O)O
inactive: dose: 13.3 mg/kg/injection, schedule: Q01DX Z (ip), vehicle: carboxymethylcellulose (CMC) 93 % of control | dose: 20.0 mg/kg/injection, schedule: Q01DX Z (ip), vehicle: carboxymethylcellulose (CMC) 101 % of control

CSc1nccc2c1ncn2C1OC(CO)C(O)C1O (centres undefined)
inactive: [4] 104 % of control | [5] 95 % of control

O=C(c1cccnc1)c1cccnc1
inactive: [7] 91 % of control | [9] 100 % of control | [11] 97 % of control

CC[CH2][Pb]([CH2]CC)([CH2]CC)[N]1C(=O)c2ccccc2C1=O
inactive: dose: 3.12 mg/kg/injection, schedule: Q01DX009 (ip), vehicle: saline 98 % of control | dose: 3.12 mg/kg/injection, schedule: Q04DX002 (ip), vehicle: saline 92 % of control | dose: 6.25 mg/kg/injection, schedule: Q01DX009 (ip), vehicle: saline 101 % of control | dose: 6.25 mg/kg/injection, schedule: Q04DX002 (ip), vehicle: saline 111 % of control | dose: 12.5 mg/kg/injection, schedule: Q04DX002 (ip), vehicle: saline 94 % of control and 111 % of control

O=c1[nH]nnc2ccccc12
inactive: dose: 50.0 mg/kg/injection, schedule: Q01DX009 (ip), vehicle: saline 90 % of control | dose: 100.0 mg/kg/injection, schedule: Q01DX009 (ip), vehicle: saline 90 % of control | dose: 100.0 mg/kg/injection, schedule: Q04DX003 (ip), vehicle: alcohol 98 % of control | dose: 200.0 mg/kg/injection, schedule: Q04DX003 (ip), vehicle: alcohol 100 % of control

O=C(Nc1ccccc1Cl)Nc1cc(Cl)ccc1Cl
inactive: dose: 100.0 mg/kg/injection, schedule: Q04DX002 (ip), vehicle: saline + alcohol 100 % of control | dose: 200.0 mg/kg/injection, schedule: Q04DX002 (ip), vehicle: saline + alcohol 100 % of control | dose: 400.0 mg/kg/injection, schedule: Q04DX002 (ip), vehicle: saline + alcohol 92 % of control

O=S(=O)(N=S(CCCl)CCCl)c1ccccc1
inactive: dose: 100.0 mg/kg/injection, schedule: Q04DX002 (ip), vehicle: Klucel (hydroxypropylcellulose) (HPC) 111 % of control | dose: 200.0 mg/kg/injection, schedule: Q04DX002 (ip), vehicle: Klucel (hydroxypropylcellulose) (HPC) 111 % of control

Cc1c([N+](=O)[O-])cc(C(C)(C)C)c(OC(=O)c2ccccc2)c1[N+](=O)[O-]
inactive: [16] 123 % of control | [17] 116 % of control

Clc1ncnc2c1nnn2C1CCCC1
inactive: [4] 101 % of control | [5] 104 % of control

COC(=O)c1nc(Cl)nc(I)c1Cl
inactive: dose: 12.5 mg/kg/injection, schedule: Q01DX001 (ip), vehicle: other 102 % of control | dose: 25.0 mg/kg/injection, schedule: Q01DX001 (ip), vehicle: other 90 % of control
